The subject of test [1] is p-ERK pathway in H358 cells. As to the kind of experiment: p-ERK pathway inhibition in H358 cells (Advanced phospho-ERK (Thr202/Tyr204) cellular kit, HTRF). Format: cell-based. The note with it: Homo sapiens, NCI-H358, 1 h compound incubation. In outline: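 IC50 from an 8-point four-parameter fit of % inhibition of ERK Thr202/Tyr204 phosphorylation, measured by HTRF 665/620 ratio in lysates. H358 cells were seeded at 50000/well, starved overnight without serum, and exposed to compound 1 h at 37 °C; controls were cell-free (100%) and untreated (0%).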
On the technique in general: In TR-FRET formats the signal depends on donor and acceptor labels being close together.

In the next test the target is T1, CYP2D6 (Homo sapiens, UniProt P10635).
T1 construct: Human liver microsome (Corning 452117); tissue Corning 452117; host or cells: human liver microsomes
In words: CYP2D6 enzymatic activity inhibition in human liver microsomes. The note with it: IC50, human liver microsome, substrate dextromethorphan. The format is in vitro ADME. As to the method: The inhibition of CYP2C9, CYP2D6, and CYP3A4 enzymatic activity by the compound of the present invention was determined using the following method. • I. Experimental materials and instruments • 1. Human liver microsome (Corning 452117) • 2. Na2HPO4 (Sigma SLBZ6180) • 3. KH2PO4 (Sigma SLBT6559) • 4. NADPH (Solarbio 705Y021) • […] • 6. Positive substrates diclofenac (Sigma SLBV3438), dextromethorphan (TRC 3-EDO-175-1), and midazolam (Cerilliant FE01161704) • 7. Positive inhibitors sulfaphenazole (D. Ehrenstorfer GmbH 109012), quinidine (TCI WEODL-RE), and ketoconazole (Sigma 100M1091V) • 7. AB Sciex Triple Quad 5500 liquid chromatography-mass spectrometry system • II. Procedures • 1. Preparation of 100 mM phosphate-buffered saline (PBS): 7.098 g Na2HPO4 was weighed. 500 mL pure water was added. The mixture was dissolved by sonication to give solution A. 3.400 g KH2PO4 was weighed. 250 mL pure water was added. The mixture was dissolved by sonication to give solution B. The solution A was placed in a stirrer, and the solution B was slowly added until the pH reached 7.4 to prepare the 100 mM PBS buffer. • 2. A 10 mM NADPH solution was prepared with a 100 mM PBS buffer. A 10 mM stock solution of the compound of the present invention was diluted with DMSO to give a compound working solution at a concentration of 200× (6000, 2000, 600, 200, 60, 20, and 0 µM). The positive inhibitor stock solution was diluted with DMSO to give a positive inhibitor working solution at a concentration of 200× (sulfaphenazole, 1000, 300, 100, 30, 10, 3, and 0 µM; quinidine/ketoconazole, 100, 30, 10, 3, 1, 0.3, and 0 µM). Substrate working solutions (120 µM diclofenac, 400 µM dextromethorphan, and 200 µM midazolam) at a concentration of 200× were prepared with water, acetonitrile, or acetonitrile/methanol. • 3. […]
The values were calculated by Excel XLfit 5.3.1.3 to obtain IC50 values for the compounds of the present invention against CYP2C9, CYP2D6, and CYP3A4 as shown in Table 8. […]
Background: Liver microsomes are a subcellular fraction often used to study metabolism.

Where only a bound is given, the exact number is not on record here.

T1 sequence (P10635 whole entry): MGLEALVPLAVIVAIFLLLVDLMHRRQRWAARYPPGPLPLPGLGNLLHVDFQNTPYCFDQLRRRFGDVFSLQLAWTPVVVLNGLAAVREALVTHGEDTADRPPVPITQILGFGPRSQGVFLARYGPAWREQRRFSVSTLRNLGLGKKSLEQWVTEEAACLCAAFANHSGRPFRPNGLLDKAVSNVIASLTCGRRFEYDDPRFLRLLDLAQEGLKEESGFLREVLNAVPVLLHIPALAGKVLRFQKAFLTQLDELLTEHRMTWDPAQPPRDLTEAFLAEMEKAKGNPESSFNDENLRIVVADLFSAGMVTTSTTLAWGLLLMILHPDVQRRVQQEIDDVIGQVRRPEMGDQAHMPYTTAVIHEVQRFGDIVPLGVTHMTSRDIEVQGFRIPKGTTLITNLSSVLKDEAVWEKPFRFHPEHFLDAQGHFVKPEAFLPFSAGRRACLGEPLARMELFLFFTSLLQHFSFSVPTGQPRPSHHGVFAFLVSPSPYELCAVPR

A word on the IC50: it is the point on the concentration scale where inhibition reaches its midpoint. High values mean lower potency, low ones higher potency. `COc1c(=O)n(N2CCOCC2)cc2c(N[C@H](C)c3cccc(C(F)F)c3F)nc(C)nc12` [Example 20, (R)-4-((1-(3-(difluoromethyl)-2-fluorophenyl)ethyl)amino)-8-methoxy-2-methyl-6-morpholinepyrido[4,3-d]pyrimidine-7(6H)-one] came in with an IC50 in test [1] of 41.9 nM.

On to `[2H]C([2H])([2H])Oc1c(=O)n(C2(CF)CC2)cc2c(N[C@H](C)c3cccc(C(F)F)c3F)nc(C)nc12` [Example 23, (R)-4-((1-(3-(difluoromethyl)-2-fluorophenyl)ethyl)amino)-6-(1-(fluoromethyl)cyclopropyl)-8-(methoxy-d3)-2-methylpyrido[4,3-d]pyrimidine-7(6H)-one], for which the half-maximal inhibitory concentration (IC50) against CYP2D6 was more than 30000 nM; in test [1], 44.9 nM.

Consider `Cc1nc(N[C@H](C)c2cccc(C(F)F)c2F)c2cn(C3(CF)CC3)c(=O)c(N3CCOCC3)c2n1` [Example 34, (R)-4-((1-(3-(difluoromethyl)-2-fluorophenyl)ethyl)amino)-6-(1-(fluoromethyl)cyclopropyl)-2-methyl-8-morpholinylpyrido[4,3-d]pyrimidine-7(6H)-one], for which half-maximal inhibition in test [1] (IC50) was put at 9.18 nM.

As for `Cc1nc(N[C@H](C)c2cccc(C(F)F)c2F)c2cn(C3(CF)CC3)c(=O)c(N3CCOC[C@@H]3C)c2n1` [Example 40, 4-(((R)-1-(3-(difluoromethyl)-2-fluorophenyl)ethyl)amino)-6-(1-(fluoromethyl)cyclopropyl)-2-methyl-8-((S)-3-methylmorpholine)pyrido[4,3-d]pyrimidine-7(6H)-one], the IC50 against CYP2D6 was more than 30000 nM; in test [1], 19.9 nM.

Consider `[2H][C@](C)(Nc1nc(C)nc2c(N3CCOCC3)c(=O)n(C3(CF)CC3)cc12)c1cccc(C(F)F)c1F` [Example 55, (R)-4-((1-(3-(difluoromethyl)-2-fluorophenyl)ethyl-1-d)amino)-6-(1-(fluoromethyl)cyclopropyl)-2-methyl-8-morpholinylpyrido[4,3-d]pyrimidine-7(6H)-one], for which the concentration for half-maximal inhibition (IC50) against CYP2D6 was more than 30000 nM; in test [1], 30.3 nM.
